The source made the active and inactive calls. The rule behind the calls is not given here.
System: B16
Assay: Suppression of MMP-9 mRNA expression in mouse B16 cells at 1 uM after 24 hrs by qRT-PCR analysis
Type: functional, cell-based

Structure (SMILES) | inhibition
CCCCCCCCCCCCCCCCCCOC(=O)[C@H](COC(=O)CON(C)[C@@H]1O[C@H](CO)[C@@H](O[C@@H]2O[C@H](CO)[C@@H](O[C@H]3O[C@H](CO)[C@@H](O)[C@H](O)[C@H]3O)[C@H](O)[C@H]2O)[C@H](O)[C@H]1O)NC(=O)CCCCCCCCCCCCCCCCC | inactive
CCCCCCCCCCCCCCCCCCOC(=O)[C@H](COC(=O)CON(C)[C@@H]1O[C@H](CO)[C@H](O)[C@H](O)[C@H]1O)NC(=O)CCCCCCCCCCCCCCCCC | inactive
CCCCCCCCCCCCCCCCCCOC(=O)CON(C)[C@@H]1O[C@H](CO)[C@@H](O)[C@H](O)[C@H]1O | inactive

System: B16
Assay: Upregulation of MMP-9 mRNA expression in mouse B16 cells at 25 uM after 24 hrs by qRT-PCR analysis
Type: functional, cell-based

Structure (SMILES) | Activity
CCCCCCCCCCCCCCCCCCOC(=O)[C@H](COC(=O)CON(C)[C@@H]1O[C@H](CO)[C@@H](O[C@@H]2O[C@H](CO)[C@H](O)[C@H](O)[C@H]2O)[C@H](O)[C@H]1O)NC(=O)CCCCCCCCCCCCCCCCC | Active
CCCCCCCCCCCCC/C=C/[C@H](O)[C@@H](CO[C@@H]1O[C@H](CO)[C@@H](O[C@@H]2O[C@H](CO)[C@H](O)[C@H](O[C@]3(C(=O)O)C[C@H](O)[C@@H](NC(C)=O)[C@H]([C@H](O)[C@H](O)CO)O3)[C@H]2O)[C@H](O)[C@H]1O)NC(=O)CCCCCCCCCCCCCCCCC | Active
CCCCCCCCCCCCCCCCCCOC(=O)CON(C)[C@@H]1O[C@H](CO)[C@@H](O[C@@H]2O[C@H](CO)[C@@H](O[C@H]3O[C@H](CO)[C@@H](O)[C@H](O)[C@H]3O)[C@H](O)[C@H]2O)[C@H](O)[C@H]1O | Active
CCCCCCCCCCCCCCCCCCOC(=O)CON(C)[C@@H]1O[C@H](CO)[C@H](O)[C@H](O)[C@H]1O | Active
CCCCCCCCCCCCCCCCCCOC(=O)CON(C)[C@@H]1O[C@H](CO)[C@@H](O[C@@H]2O[C@H](CO)[C@H](O)[C@H](O)[C@H]2O)[C@H](O)[C@H]1O | Active
CCCCCCCCCCCCCCCCCCOC(=O)[C@H](COC(=O)CON(C)[C@@H]1O[C@H](CO)[C@@H](O)[C@H](O)[C@H]1O)NC(=O)CCCCCCCCCCCCCCCCC | Active
CCCCCCCCCCCCCCCCCCOC(=O)[C@H](COC(=O)CON(C)[C@@H]1O[C@H](CO)[C@@H](O[C@@H]2O[C@H](CO)[C@H](O)[C@H](O[C@]3(C(=O)O)C[C@H](O)[C@@H](NC(C)=O)[C@H]([C@H](O)[C@H](O)CO)O3)[C@H]2O)[C@H](O)[C@H]1O)NC(=O)CCCCCCCCCCCCCCCCC | Active

System: B16
Assay: Upregulation of MMP-9 mRNA expression in mouse B16 cells at 1 uM after 24 hrs by qRT-PCR analysis
Type: functional, cell-based

Structure (SMILES) | Activity
CCCCCCCCCCCCCCCCCCOC(=O)CON(C)[C@@H]1O[C@H](CO)[C@@H](O[C@@H]2O[C@H](CO)[C@H](O)[C@H](O[C@]3(C(=O)O)C[C@H](O)[C@@H](NC(C)=O)[C@H]([C@H](O)[C@H](O)CO)O3)[C@H]2O)[C@H](O)[C@H]1O | Active
